Source: patent publication US20220125051A1, “PRE-HARVEST DESICCATION METHOD” (SYNGENTA CROP PROTECTION AG, priority 2019, published 2022)
Read-outs that look alike come from different tables or passages of the source.

Tests used:
Experiment in all cases: Post-emergence efficacy, Method A
Format in all cases: in vivo
[1] = system: Eleusine indica (ELEIN); settings: Eleusine indica, post-emergence, 312 h, evaluated after 13 days
In short: (§1)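 Post-emergence spray on 14-day-old glasshouse plants (24/16 °C day/night, 14 h photoperiod, 65% humidity). Test material was taken up in acetone and IF50 emulsifier mix, then diluted with sodium lauryl ether sulphate (0.25% or 1%) plus 1% ammonium sulphate. Damage was rated 13 days later, 100 = total.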

[2] = system: Chenopodium album (CHEAL); settings: Chenopodium album, post-emergence, 312 h, evaluated after 13 days
In short: as §1

[3] = system: Setaria faberi (SETFA); settings: Setaria faberi, post-emergence, 312 h, evaluated after 13 days
In short: as §1

[4] = system: Lolium perenne (LOLPE); settings: Lolium perenne, post-emergence, 312 h, evaluated after 13 days
In short: as §1

[5] = system: Amaranthus palmeri (AMAPA); settings: Amaranthus palmeri, post-emergence, 312 h, evaluated after 13 days
In short: as §1

[6] = system: Digitaria sanguinalis (DIGSA); settings: Digitaria sanguinalis, post-emergence, 312 h, evaluated after 13 days
In short: as §1

[7] = system: Euphorbia heterophylla (EPHHL); settings: Euphorbia heterophylla, post-emergence, 312 h, evaluated after 13 days
In short: as §1

[8] = system: Echinochloa crus-galli (ECHCG); settings: Echinochloa crus-galli, post-emergence, 312 h, evaluated after 13 days
In short: as §1

[9] = system: Ipomoea hederacea (IPOHE); settings: Ipomoea hederacea, post-emergence, 312 h, evaluated after 13 days
In short: as §1

[10] = Application rate 500 g/Ha, 100=total damage to plant, 0=no damage to plant, read-out: Control of weed species after post-emergence application, ELEIN
[11] = Application rate 500 g/Ha, 100=total damage to plant, 0=no damage to plant, read-out: Control of weed species after post-emergence application, CHEAL
[12] = Application rate 500 g/Ha, 100=total damage to plant, 0=no damage to plant, read-out: Control of weed species after post-emergence application, SETFA
[13] = Application rate 500 g/Ha, 100=total damage to plant, 0=no damage to plant, read-out: Control of weed species after post-emergence application, LOLPE
[14] = Application rate 500 g/Ha, 100=total damage to plant, 0=no damage to plant, read-out: Control of weed species after post-emergence application, AMAPA
[15] = Application rate 500 g/Ha, 100=total damage to plant, 0=no damage to plant, read-out: Control of weed species after post-emergence application, DIGSA
[16] = Application rate 500 g/Ha, 100=total damage to plant, 0=no damage to plant, read-out: Control of weed species after post-emergence application, EPHHL
[17] = Application rate 500 g/Ha, 100=total damage to plant, 0=no damage to plant, read-out: Control of weed species after post-emergence application, ECHCG
[18] = Application rate 500 g/Ha, 100=total damage to plant, 0=no damage to plant, read-out: Control of weed species after post-emergence application, IPOHE
[19] = Application Rate 500 g/Ha, Method A, read-out: Control of weed species after post-emergence application, ELEIN (100=total damage to plant; 0=no damage to plant)
[20] = Application Rate 500 g/Ha, Method A, read-out: Control of weed species after post-emergence application, CHEAL (100=total damage to plant; 0=no damage to plant)
[21] = Application Rate 500 g/Ha, Method A, read-out: Control of weed species after post-emergence application, SETFA (100=total damage to plant; 0=no damage to plant)
[22] = Application Rate 500 g/Ha, Method A, read-out: Control of weed species after post-emergence application, LOLPE (100=total damage to plant; 0=no damage to plant)
[23] = Application Rate 500 g/Ha, Method A, read-out: Control of weed species after post-emergence application, AMAPA (100=total damage to plant; 0=no damage to plant)
[24] = Application Rate 500 g/Ha, Method A, read-out: Control of weed species after post-emergence application, DIGSA (100=total damage to plant; 0=no damage to plant)
[25] = Application Rate 500 g/Ha, Method A, read-out: Control of weed species after post-emergence application, EPHHL (100=total damage to plant; 0=no damage to plant)
[26] = Application Rate 500 g/Ha, Method A, read-out: Control of weed species after post-emergence application, ECHCG (100=total damage to plant; 0=no damage to plant)
[27] = Application Rate 500 g/Ha, Method A, read-out: Control of weed species after post-emergence application, IPOHE (100=total damage to plant; 0=no damage to plant)

O=C([O-])CC[n+]1ccc(-c2ncccc2F)cn1 [Compound A67]
pest or weed control at 500 g/ha [1, 10]: 70% | pest or weed control at 500 g/ha [2, 11]: 50% | pest or weed control at 500 g/ha [3, 12]: 70% | pest or weed control at 500 g/ha [4, 13]: 40% | pest or weed control at 500 g/ha [5, 14]: 60% | pest or weed control at 500 g/ha [6, 15]: 60% | pest or weed control at 500 g/ha [7, 16]: 80% | pest or weed control at 500 g/ha [8, 17]: 80% | pest or weed control at 500 g/ha [9, 18]: 20%

COc1cnc(-c2cc[n+](CCS(=O)(=O)[O-])nc2)nc1 [Compound A14]
pest or weed control at 500 g/ha [1, 10]: 90% | pest or weed control at 500 g/ha [2, 11]: 60% | pest or weed control at 500 g/ha [3, 12]: 60% | pest or weed control at 500 g/ha [4, 13]: 40% | pest or weed control at 500 g/ha [5, 14]: 80% | pest or weed control at 500 g/ha [6, 15]: 90% | pest or weed control at 500 g/ha [7, 16]: 20% | pest or weed control at 500 g/ha [8, 17]: 60% | pest or weed control at 500 g/ha [9, 18]: 40%

Nc1cc(-c2cc[n+](CCC(=O)O)nc2)ccn1 [Compound A210]
pest or weed control at 500 g/ha [1, 19]: 20% | pest or weed control at 500 g/ha [2, 20]: 10% | pest or weed control at 500 g/ha [3, 21]: 30% | pest or weed control at 500 g/ha [4, 22]: 20% | pest or weed control at 500 g/ha [5, 23]: 70% | pest or weed control at 500 g/ha [6, 24]: 60% | pest or weed control at 500 g/ha [7, 25]: 10% | pest or weed control at 500 g/ha [8, 26]: 10% | pest or weed control at 500 g/ha [9, 27]: 10%

O=C(O)C(O)C[n+]1ccc(-c2ccncn2)cn1 (stereo not drawn) [Compound A190]
pest or weed control at 500 g/ha [1, 19]: 70% | pest or weed control at 500 g/ha [2, 20]: 80% | pest or weed control at 500 g/ha [3, 21]: 40% | pest or weed control at 500 g/ha [4, 22]: 40% | pest or weed control at 500 g/ha [5, 23]: 100% | pest or weed control at 500 g/ha [6, 24]: 60% | pest or weed control at 500 g/ha [7, 25]: 80% | pest or weed control at 500 g/ha [8, 26]: 60% | pest or weed control at 500 g/ha [9, 27]: 70%

O=C(O)CC[n+]1ccc(-c2cncc(C(F)(F)F)n2)cn1 [Compound A120]
pest or weed control at 500 g/ha [1, 10]: 30% | pest or weed control at 500 g/ha [2, 11]: 70% | pest or weed control at 500 g/ha [3, 12]: 40% | pest or weed control at 500 g/ha [4, 13]: 20% | pest or weed control at 500 g/ha [5, 14]: 90% | pest or weed control at 500 g/ha [6, 15]: 40% | pest or weed control at 500 g/ha [7, 16]: 50% | pest or weed control at 500 g/ha [8, 17]: 40% | pest or weed control at 500 g/ha [9, 18]: 10%

Cc1cncc(-c2cc[n+](CCS(=O)(=O)[O-])nc2)n1 [Compound A83]
pest or weed control at 500 g/ha [1, 10]: 100% | pest or weed control at 500 g/ha [2, 11]: 80% | pest or weed control at 500 g/ha [3, 12]: 90% | pest or weed control at 500 g/ha [4, 13]: 70% | pest or weed control at 500 g/ha [5, 14]: 90% | pest or weed control at 500 g/ha [6, 15]: 100% | pest or weed control at 500 g/ha [7, 16]: 90% | pest or weed control at 500 g/ha [8, 17]: 50% | pest or weed control at 500 g/ha [9, 18]: 40%

O=S(=O)([O-])CC[n+]1ccc(-c2ncc(Cl)cn2)cn1 [Compound A17]
pest or weed control at 500 g/ha [1, 10]: 60% | pest or weed control at 500 g/ha [2, 11]: 30% | pest or weed control at 500 g/ha [3, 12]: 40% | pest or weed control at 500 g/ha [4, 13]: 10% | pest or weed control at 500 g/ha [5, 14]: 100% | pest or weed control at 500 g/ha [6, 15]: 60% | pest or weed control at 500 g/ha [7, 16]: 30% | pest or weed control at 500 g/ha [8, 17]: 40% | pest or weed control at 500 g/ha [9, 18]: 30%

COC(=O)CC[n+]1ccc(-c2cccnn2)cn1 [Compound A139]
pest or weed control at 500 g/ha [1, 10]: 100% | pest or weed control at 500 g/ha [2, 11]: 100% | pest or weed control at 500 g/ha [3, 12]: 100% | pest or weed control at 500 g/ha [4, 13]: 90% | pest or weed control at 500 g/ha [5, 14]: 80% | pest or weed control at 500 g/ha [6, 15]: 100% | pest or weed control at 500 g/ha [7, 16]: 90% | pest or weed control at 500 g/ha [8, 17]: 100% | pest or weed control at 500 g/ha [9, 18]: 10%

CN(C)c1ccnc(-c2cc[n+](CCS(=O)(=O)[O-])nc2)n1 [Compound A16]
pest or weed control at 500 g/ha [1, 10]: 70% | pest or weed control at 500 g/ha [2, 11]: 30% | pest or weed control at 500 g/ha [3, 12]: 50% | pest or weed control at 500 g/ha [4, 13]: 10% | pest or weed control at 500 g/ha [5, 14]: 60% | pest or weed control at 500 g/ha [6, 15]: 50% | pest or weed control at 500 g/ha [7, 16]: 50% | pest or weed control at 500 g/ha [8, 17]: 60% | pest or weed control at 500 g/ha [9, 18]: 40%

O=S(=O)([O-])CC[n+]1ccc(-c2ncc(C3CC3)cn2)cn1 [Compound A34]
pest or weed control at 500 g/ha [1, 10]: 90% | pest or weed control at 500 g/ha [2, 11]: 70% | pest or weed control at 500 g/ha [3, 12]: 70% | pest or weed control at 500 g/ha [4, 13]: 60% | pest or weed control at 500 g/ha [5, 14]: 100% | pest or weed control at 500 g/ha [6, 15]: 60% | pest or weed control at 500 g/ha [7, 16]: 70% | pest or weed control at 500 g/ha [8, 17]: 30% | pest or weed control at 500 g/ha [9, 18]: 70%

CCOC(=O)CC[n+]1ccc(-c2ccccn2)cn1 [Compound A91]
pest or weed control at 500 g/ha [1, 10]: 60% | pest or weed control at 500 g/ha [2, 11]: 20% | pest or weed control at 500 g/ha [3, 12]: 60% | pest or weed control at 500 g/ha [4, 13]: 20% | pest or weed control at 500 g/ha [5, 14]: 40% | pest or weed control at 500 g/ha [6, 15]: 50% | pest or weed control at 500 g/ha [7, 16]: 40% | pest or weed control at 500 g/ha [8, 17]: 60% | pest or weed control at 500 g/ha [9, 18]: 20%

Cc1cc(-c2cc[n+](CCS(=O)(=O)[O-])nc2)ncn1 [Compound A117]
pest or weed control at 500 g/ha [1, 10]: 90% | pest or weed control at 500 g/ha [2, 11]: 90% | pest or weed control at 500 g/ha [3, 12]: 100% | pest or weed control at 500 g/ha [4, 13]: 50% | pest or weed control at 500 g/ha [5, 14]: 90% | pest or weed control at 500 g/ha [6, 15]: 70% | pest or weed control at 500 g/ha [7, 16]: 100% | pest or weed control at 500 g/ha [8, 17]: 90% | pest or weed control at 500 g/ha [9, 18]: 80%

Cc1nc(-c2cc[n+](CCC(=O)[O-])nc2)ncc1Cl [Compound A100]
pest or weed control at 500 g/ha [1, 10]: 60% | pest or weed control at 500 g/ha [2, 11]: 60% | pest or weed control at 500 g/ha [3, 12]: 20% | pest or weed control at 500 g/ha [4, 13]: 10% | pest or weed control at 500 g/ha [5, 14]: 60% | pest or weed control at 500 g/ha [6, 15]: 40% | pest or weed control at 500 g/ha [7, 16]: 90% | pest or weed control at 500 g/ha [8, 17]: 70% | pest or weed control at 500 g/ha [9, 18]: 20%

Cc1cc(=O)[nH]c(-c2cc[n+](CCS(=O)(=O)[O-])nc2)n1 [Compound A95]
pest or weed control at 500 g/ha [1, 10]: 30% | pest or weed control at 500 g/ha [2, 11]: 40% | pest or weed control at 500 g/ha [3, 12]: 50% | pest or weed control at 500 g/ha [4, 13]: 20% | pest or weed control at 500 g/ha [5, 14]: 30% | pest or weed control at 500 g/ha [6, 15]: 40% | pest or weed control at 500 g/ha [7, 16]: 40% | pest or weed control at 500 g/ha [8, 17]: 50% | pest or weed control at 500 g/ha [9, 18]: 30%
